PubChem BioAssay AID1919003 (Molecular Pharmacology Branch, DTP, NCI, 2023)
pIC50: −log10 of the molar value.

System: 786-0 complex spheroids with HUVEC/MSC, growth % test/control
Test: Anticancer human tumor 786-0 cell line growth inhibition [AhR];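 further: compound exposure lasted seven days before the read-out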
Conditions: for pIC50: curve of first compound; for viability, T/C: stronger effect = lower value
How it was run: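 Spheroids combined tumor cells with HUVEC endothelial cells and human MSCs as stroma. AhR antagonists were paired with standard or investigational drugs, each dosed in half-log steps down from near clinical Cmax, or from 10 microM where Cmax was unknown.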

[1] = second compound 0.1 µM, first compound 0.0316 µM
[2] = second compound 0.1 µM, first compound 0.1 µM
[3] = second compound 0.1 µM, first compound 0.316 µM
[4] = second compound 0.1 µM, first compound 1 µM
[5] = second compound 0.1 µM, first compound 3.16 µM
[6] = second compound 0.1 µM, first compound 10 µM
[7] = second compound 0.316 µM, first compound 0.0316 µM
[8] = second compound 0.316 µM, first compound 0.1 µM
[9] = second compound 0.316 µM, first compound 0.316 µM
[10] = second compound 0.316 µM, first compound 1 µM
[11] = second compound 0.316 µM, first compound 3.16 µM
[12] = second compound 0.316 µM, first compound 10 µM
[13] = second compound 1 µM, first compound 0.0316 µM
[14] = second compound 1 µM, first compound 0.1 µM
[15] = second compound 1 µM, first compound 0.316 µM
[16] = second compound 1 µM, first compound 1 µM
[17] = second compound 1 µM, first compound 3.16 µM
[18] = second compound 1 µM, first compound 10 µM
[19] = second compound 3.16 µM, first compound 0.0316 µM
[20] = second compound 3.16 µM, first compound 0.1 µM
[21] = second compound 3.16 µM, first compound 0.316 µM
[22] = second compound 3.16 µM, first compound 1 µM
[23] = second compound 3.16 µM, first compound 3.16 µM
[24] = second compound 3.16 µM, first compound 10 µM
[25] = second compound 10 µM, first compound 0.0316 µM
[26] = second compound 10 µM, first compound 0.1 µM
[27] = second compound 10 µM, first compound 0.316 µM
[28] = second compound 10 µM, first compound 1 µM
[29] = second compound 10 µM, first compound 3.16 µM
[30] = second compound 10 µM, first compound 10 µM

## CC1COCCN1c1cc(C2(S(C)(=N)=O)CC2)nc(-c2ccnc3[nH]ccc23)n1 (stereo not given) + Cc1cncc(-c2nc(NCCc3c[nH]c4ccccc34)c3ncn(C(C)C)c3n2)c1
Second compound 0.1 µM
  pIC50: 5.15
Second compound 0.316 µM
  pIC50: 5.19
Second compound 1 µM
  pIC50: 5.32
Second compound 3.16 µM
  pIC50: 5.91
Second compound 10 µM
  pIC50: > 7.50
[1]
  viability, T/C: 107%
[2]
  viability, T/C: 118%
[3]
  viability, T/C: 116%
[4]
  viability, T/C: 113%
[5]
  viability, T/C: 97.7%
[6]
  viability, T/C: 29.8%
[7]
  viability, T/C: 122%
[8]
  viability, T/C: 117%
[9]
  viability, T/C: 112%
[10]
  viability, T/C: 108%
[11]
  viability, T/C: 91.9%
[12]
  viability, T/C: 25.3%
[13]
  viability, T/C: 100%
[14]
  viability, T/C: 110%
[15]
  viability, T/C: 105%
[16]
  viability, T/C: 125%
[17]
  viability, T/C: 67%
[18]
  viability, T/C: 20.9%
[19]
  viability, T/C: 62.4%
[20]
  viability, T/C: 64.5%
[21]
  viability, T/C: 69%
[22]
  viability, T/C: 53.6%
[23]
  viability, T/C: 26.9%
[24]
  viability, T/C: 5.56%
[25]
  viability, T/C: 18.2%
[26]
  viability, T/C: 18.7%
[27]
  viability, T/C: 20.6%
[28]
  viability, T/C: 17.5%
[29]
  viability, T/C: 3.02%
[30]
  viability, T/C: 0.89%

## CCc1c2c(nc3ccc(O)cc13)-c1cc3c(c(=O)n1C2)COC(=O)[C@]3(O)CC + CC(CO)NC(=O)c1cc(-c2ccc(Cl)cc2)nn(-c2cnn(C)c2)c1=O
Second compound 0.1 µM
  pIC50: 8.28
Second compound 0.316 µM
  pIC50: 8.31
Second compound 1 µM
  pIC50: 8.37
Second compound 3.16 µM
  pIC50: 8.51
Second compound 10 µM
  pIC50: 8.65
Second compound 0.1 µM, first compound 0.000949 µM
  viability, T/C: 98.5%
Second compound 0.1 µM, first compound 0.003 µM
  viability, T/C: 82.1%
Second compound 0.1 µM, first compound 0.00949 µM
  viability, T/C: 15.3%
Second compound 0.1 µM, first compound 0.03 µM
  viability, T/C: 5.93%
Second compound 0.1 µM, first compound 0.0949 µM
  viability, T/C: 2.72%
Second compound 0.1 µM, first compound 0.3 µM
  viability, T/C: 2.09%
Second compound 0.316 µM, first compound 0.000949 µM
  viability, T/C: 88%
Second compound 0.316 µM, first compound 0.003 µM
  viability, T/C: 75.5%
Second compound 0.316 µM, first compound 0.00949 µM
  viability, T/C: 16.6%
Second compound 0.316 µM, first compound 0.03 µM
  viability, T/C: 5.34%
Second compound 0.316 µM, first compound 0.0949 µM
  viability, T/C: 3.26%
Second compound 0.316 µM, first compound 0.3 µM
  viability, T/C: 2.5%
Second compound 1 µM, first compound 0.000949 µM
  viability, T/C: 96.8%
Second compound 1 µM, first compound 0.003 µM
  viability, T/C: 65%
Second compound 1 µM, first compound 0.00949 µM
  viability, T/C: 14.1%
Second compound 1 µM, first compound 0.03 µM
  viability, T/C: 6.51%
Second compound 1 µM, first compound 0.0949 µM
  viability, T/C: 3.19%
Second compound 1 µM, first compound 0.3 µM
  viability, T/C: 2.39%
Second compound 3.16 µM, first compound 0.000949 µM
  viability, T/C: 81.5%
Second compound 3.16 µM, first compound 0.003 µM
  viability, T/C: 50.7%
Second compound 3.16 µM, first compound 0.00949 µM
  viability, T/C: 14.6%
Second compound 3.16 µM, first compound 0.03 µM
  viability, T/C: 5.63%
Second compound 3.16 µM, first compound 0.0949 µM
  viability, T/C: 2.91%
Second compound 3.16 µM, first compound 0.3 µM
  viability, T/C: 2.49%
Second compound 10 µM, first compound 0.000949 µM
  viability, T/C: 81.4%
Second compound 10 µM, first compound 0.003 µM
  viability, T/C: 39%
Second compound 10 µM, first compound 0.00949 µM
  viability, T/C: 14%
Second compound 10 µM, first compound 0.03 µM
  viability, T/C: 6.45%
Second compound 10 µM, first compound 0.0949 µM
  viability, T/C: 3.27%
Second compound 10 µM, first compound 0.3 µM
  viability, T/C: 2.66%

## CC(C)c1c(-c2ccccc2)nc2c(C#N)c[nH]n2c1=O + Cc1cncc(-c2nc(NCCc3c[nH]c4ccccc34)c3ncn(C(C)C)c3n2)c1
Second compound 0.1 µM
  pIC50: < 5.00
Second compound 0.316 µM
  pIC50: < 5.00
Second compound 1 µM
  pIC50: < 5.00
Second compound 3.16 µM
  pIC50: < 5.00
Second compound 10 µM
  pIC50: > 7.50
[1]
  viability, T/C: 115%
[2]
  viability, T/C: 121%
[3]
  viability, T/C: 112%
[4]
  viability, T/C: 123%
[5]
  viability, T/C: 113%
[6]
  viability, T/C: 132%
[7]
  viability, T/C: 120%
[8]
  viability, T/C: 118%
[9]
  viability, T/C: 118%
[10]
  viability, T/C: 124%
[11]
  viability, T/C: 115%
[12]
  viability, T/C: 104%
[13]
  viability, T/C: 114%
[14]
  viability, T/C: 107%
[15]
  viability, T/C: 114%
[16]
  viability, T/C: 108%
[17]
  viability, T/C: 116%
[18]
  viability, T/C: 112%
[19]
  viability, T/C: 82.9%
[20]
  viability, T/C: 71.8%
[21]
  viability, T/C: 78.2%
[22]
  viability, T/C: 78%
[23]
  viability, T/C: 67.2%
[24]
  viability, T/C: 76.1%
[25]
  viability, T/C: 7.79%
[26]
  viability, T/C: 5.72%
[27]
  viability, T/C: 9.94%
[28]
  viability, T/C: 8.21%
[29]
  viability, T/C: 8.12%
[30]
  viability, T/C: 9.28%
